The values below come from patent publication US20070259849A1, “Azine-Carboxamides as Anti-Cancer Agents” (ASTRAZENECA AB, priority 2004, published 2007).

The structures appear in SMILES notation.

For the assay, the target named is T1, human recombinant, purified wild type His-B-Raf protein kinase (Homo sapiens, UniProt P15056).
T1 construct: His
In words: B-Raf In Vitro ELISA Assay. The class given is biochemical. The following applies: phosphorylation of MEK1 (0.15 μM) by 2.5 nM B-Raf, 10 μM ATP, 1 hour preincubation at 25° C. On the procedure: B-Raf In Vitro ELISA Assay
Activity of human recombinant, purified wild type His-B-Raf protein kinase was determined in vitro using an enzyme-linked immunosorbent assay (ELISA) assay format, which measures phosphorylation of the B-Raf substrate, human recombinant, purified His-derived (detagged) MEK1. The reaction utilized 2.5 nM B-Raf, 0.15 μM MEK1 and 10 μM adenosine triphosphate (ATP) in 40 mM N-(2-hydroxyethyl)piperazine-N′-(2-ethanesulfonic acid hemisodium salt (HEPES), 5 mM 1,4-dithio-DL-threitol (DTT), 10 mM MgCl2, 1 mM ethylenediaminetetraacetic acid (EDTA) and 0.2 M NaCl (1×HEPES buffer), with or without compound at various concentrations, in a total reaction volume of 25 μl in 384 well plates. B-Raf and compound were preincubated in 1×HEPES buffer for 1 hour at 25° C. Reactions were initiated with addition of MEK1 and ATP in 1×HEPES buffer and incubated at 25° C. for 50 minutes and reactions stopped by addition of 10 μl 175 mM EDTA (final concentration 50 mM) in 1× HEPES buffer. 5 μl of the assay mix was then diluted 1:20 into 50 mM EDTA in 1×HEPES buffer, transferred to 384 well black high protein binding plates and incubated overnight at 4° C. Plates were washed in tris buffered saline containing 0.1% Tween20 (TBST), blocked with 50 μl Superblock (Pierce) for 1 hour at 25° C., washed in TBST, incubated with 50 μl rabbit polyclonal anti-phospho-MEK antibody (Cell Signaling) diluted 1:1000 in TBS for 2 hours at 25° C., washed with TBST, incubated with 50 μl goat anti-rabbit horseradish peroxidase-linked antibody (Cell Signaling) diluted 1:2000 in TBS for 1 hour at 25° C. and washed with TBST. 50 μl of fluorogenic peroxidase substrate (Quantablu—Pierce) was added and following incubation for 45-60 minutes, 50 μl QuantabluSTOP (Pierce) was added. Blue fluorescent product was detected at excitation 325 and emission 420 using a TECAN Ultra plate reader. Data was graphed and IC50s calculated using Excel Fit (Microsoft).
(ELISA stands for enzyme-linked immunosorbent assay.)

T1 sequence (P15056 whole entry): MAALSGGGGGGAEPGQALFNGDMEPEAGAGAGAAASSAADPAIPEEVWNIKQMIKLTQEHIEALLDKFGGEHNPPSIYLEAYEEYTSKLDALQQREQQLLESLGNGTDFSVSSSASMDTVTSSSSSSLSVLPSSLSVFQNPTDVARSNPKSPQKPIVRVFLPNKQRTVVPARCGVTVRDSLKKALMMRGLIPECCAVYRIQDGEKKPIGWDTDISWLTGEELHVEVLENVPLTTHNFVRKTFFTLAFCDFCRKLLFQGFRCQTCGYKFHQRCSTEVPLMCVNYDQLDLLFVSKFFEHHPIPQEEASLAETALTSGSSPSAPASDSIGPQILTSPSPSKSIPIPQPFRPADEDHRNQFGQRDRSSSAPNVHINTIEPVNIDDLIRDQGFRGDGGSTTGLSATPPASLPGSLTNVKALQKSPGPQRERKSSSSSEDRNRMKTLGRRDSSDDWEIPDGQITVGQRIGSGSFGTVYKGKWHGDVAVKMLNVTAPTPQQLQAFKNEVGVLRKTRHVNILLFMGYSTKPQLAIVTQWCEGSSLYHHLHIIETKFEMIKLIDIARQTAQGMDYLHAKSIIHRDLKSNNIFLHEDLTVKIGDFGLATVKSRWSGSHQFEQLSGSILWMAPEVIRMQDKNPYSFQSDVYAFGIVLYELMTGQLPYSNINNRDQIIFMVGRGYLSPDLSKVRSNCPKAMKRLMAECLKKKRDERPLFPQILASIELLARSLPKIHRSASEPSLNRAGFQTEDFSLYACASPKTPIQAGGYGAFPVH

On to `Cc1cc(C(=O)Nc2cc(NC(=O)c3cccc(C(C)(C)C#N)c3)ccc2C)nc(N2CCCCC2)n1` [Example 1, N^1-[3-(1-Cyano-1-methylethyl)benzoyl]-N^3-[2-(piperidin-1-yl)-4-methylpyrimidin-6-ylcarbonyl]-4-methylbenzene-1,3-diamine], for which the IC50 amounted to 5700 nM. As for `Cc1cc(C(=O)Nc2cc(NC(=O)c3cccc(C(F)(F)F)c3)ccc2C)nc(N2CCN(C)CC2)n1` [Example 49, N^1-(3-Trifluoromethylbenzoyl)-N^3-[2-(4-methylpiperazin-1-yl)-4-methylpyrimidin-6-ylcarbonyl]-4-methylbenzene-1,3-diamine], the figure is 800 nM; as for `Cc1cc(C(=O)Nc2cc(NC(=O)c3cccc(C(C)(C)C#N)c3)ccc2C)nc(N2CCOCC2)n1` [Example 7, N^1-[3-(1-Cyano-1-methylethyl)benzoyl]-N^3-[2-(morpholino)-4-methylpyrimidin-6-ylcarbonyl]-4-methylbenzene-1,3-diamine], 600 nM.

For orientation: IC50 means the concentration that gives 50% inhibition.
